The values that follow come from patent US6608086B2, “Dihydropyridines and new uses thereof” (Synaptic Pharmaceutical Corporation, priority 1993, dated 2003).

Structures are written as SMILES. Counter-ions that a name gives are not always drawn. Like-named read-outs stand apart in the source and are kept apart here.

For one experiment, the target named is T1, α2A receptor (Homo sapiens, UniProt P08913).
T1 construct: host or cells: LM(tk-) cells, line L-α2A
T1 sequence (P08913 1-465): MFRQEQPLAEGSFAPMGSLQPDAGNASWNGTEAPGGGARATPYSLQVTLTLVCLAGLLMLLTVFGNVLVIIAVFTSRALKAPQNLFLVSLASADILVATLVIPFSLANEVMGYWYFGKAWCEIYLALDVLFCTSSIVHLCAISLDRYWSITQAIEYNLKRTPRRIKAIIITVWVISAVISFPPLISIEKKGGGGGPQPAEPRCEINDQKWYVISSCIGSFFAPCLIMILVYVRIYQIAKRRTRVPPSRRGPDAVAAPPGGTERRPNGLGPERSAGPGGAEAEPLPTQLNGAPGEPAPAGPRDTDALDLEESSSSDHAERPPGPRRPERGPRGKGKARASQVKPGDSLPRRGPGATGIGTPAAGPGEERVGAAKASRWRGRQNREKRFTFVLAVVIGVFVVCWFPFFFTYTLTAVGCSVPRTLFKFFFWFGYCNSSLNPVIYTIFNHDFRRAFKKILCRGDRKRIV
Briefly: Competition binding, [3H]rauwolscine, human α2A receptor. The procedure, abridged: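 Filter-bound [3H]rauwolscine (0.5 nM) was measured after equilibrium competition with test antagonists on lysates of LM(tk−) cells stably transfected with each human α2 subtype. Buffer: 25 mM glycylglycine, pH 7.6 at room temperature; 10 μM phentolamine gave nonspecific binding.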

Another experiment concerns the target T2, L-type calcium channel (Rattus norvegicus, UniProt P22002).
T2 construct: membrane fragments of rat cardiac muscle; from tissue; host or cells: rat cardiac muscle membranes
Briefly: Competition binding of [3H]nitrendipine to membrane fragments of rat cardiac muscle.

In experiment [1] the target is T3, α1A Human Adrenergic Receptor (Homo sapiens, UniProt P25100).
T3 construct: The entire coding region of α1A (1719 bp); expressed in transfected cells
T3 sequence (P25100 1-572): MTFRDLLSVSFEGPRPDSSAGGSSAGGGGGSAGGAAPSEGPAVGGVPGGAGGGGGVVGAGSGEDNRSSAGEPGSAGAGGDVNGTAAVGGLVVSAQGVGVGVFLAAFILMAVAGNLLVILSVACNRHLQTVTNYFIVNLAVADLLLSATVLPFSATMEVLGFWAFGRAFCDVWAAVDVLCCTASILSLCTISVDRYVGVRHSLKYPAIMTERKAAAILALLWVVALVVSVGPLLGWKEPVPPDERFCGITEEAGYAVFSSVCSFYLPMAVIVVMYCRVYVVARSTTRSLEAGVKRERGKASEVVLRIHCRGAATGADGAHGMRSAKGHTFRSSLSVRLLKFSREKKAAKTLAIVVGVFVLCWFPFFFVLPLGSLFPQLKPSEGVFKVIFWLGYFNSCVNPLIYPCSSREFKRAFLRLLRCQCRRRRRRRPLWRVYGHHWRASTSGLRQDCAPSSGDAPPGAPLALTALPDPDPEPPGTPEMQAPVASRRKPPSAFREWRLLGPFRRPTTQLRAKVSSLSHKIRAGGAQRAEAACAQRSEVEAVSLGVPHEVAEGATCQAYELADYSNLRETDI
The experiment in a line: Radioligand binding, [3H]prazosin, cloned human α1A adrenergic receptor. The method in brief:
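Binding of [3H]prazosin (0.5 nM) was measured at 37° C over 20 min in pH 7.5 Tris/MgCl2/ascorbate buffer, using membrane preparations of LM(tk−) cells expressing cloned human α1A receptor. Filtration through GF/B filters stopped the reaction. 10 μM phentolamine gave nonspecific binding.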

Setting [2] is: [3H]rauwolscine, LM(tk-) cell line L-α2A, SEM and n in lines below, read-out: pKi alpha-2 2a (converted).
[3] abbreviates: [3H]nitrendipine, rat cardiac muscle membranes, SEM and n in lines below, read-out: pKi Ca (converted).
Where [4] appears, read: [3H]prazosin, cloned human receptor in LM(tk-) cell membranes, SEM and n in lines below, read-out: pKi alpha-1 1a (converted).
Where [5] appears, read: [3H]rauwolscine, human α2A receptor, LM(tk−) cells, read-out: pKi alpha-2 2a (converted).
The mark [6] stands for this setting: [3H]nitrendipine, rat cardiac muscle membrane fragments, L-type calcium channel, read-out: pKi Ca (converted).
[7] abbreviates: [3H]prazosin, cloned human α1A receptor, LM(tk−) cell membranes, read-out: pKi alpha-1 1a (converted).
Setting [8] is: [3H]rauwolscine, LM(tk-) cell line L-α2A, SEM and n in lines below.
Setting [9] is: [3H]nitrendipine, rat cardiac muscle membranes, SEM and n in lines below.
Where [10] appears, read: [3H]prazosin, cloned human receptor in LM(tk-) cell membranes, SEM and n in lines below.

T2 sequence (P22002 whole entry, other chains not shown, the tested form may be a part): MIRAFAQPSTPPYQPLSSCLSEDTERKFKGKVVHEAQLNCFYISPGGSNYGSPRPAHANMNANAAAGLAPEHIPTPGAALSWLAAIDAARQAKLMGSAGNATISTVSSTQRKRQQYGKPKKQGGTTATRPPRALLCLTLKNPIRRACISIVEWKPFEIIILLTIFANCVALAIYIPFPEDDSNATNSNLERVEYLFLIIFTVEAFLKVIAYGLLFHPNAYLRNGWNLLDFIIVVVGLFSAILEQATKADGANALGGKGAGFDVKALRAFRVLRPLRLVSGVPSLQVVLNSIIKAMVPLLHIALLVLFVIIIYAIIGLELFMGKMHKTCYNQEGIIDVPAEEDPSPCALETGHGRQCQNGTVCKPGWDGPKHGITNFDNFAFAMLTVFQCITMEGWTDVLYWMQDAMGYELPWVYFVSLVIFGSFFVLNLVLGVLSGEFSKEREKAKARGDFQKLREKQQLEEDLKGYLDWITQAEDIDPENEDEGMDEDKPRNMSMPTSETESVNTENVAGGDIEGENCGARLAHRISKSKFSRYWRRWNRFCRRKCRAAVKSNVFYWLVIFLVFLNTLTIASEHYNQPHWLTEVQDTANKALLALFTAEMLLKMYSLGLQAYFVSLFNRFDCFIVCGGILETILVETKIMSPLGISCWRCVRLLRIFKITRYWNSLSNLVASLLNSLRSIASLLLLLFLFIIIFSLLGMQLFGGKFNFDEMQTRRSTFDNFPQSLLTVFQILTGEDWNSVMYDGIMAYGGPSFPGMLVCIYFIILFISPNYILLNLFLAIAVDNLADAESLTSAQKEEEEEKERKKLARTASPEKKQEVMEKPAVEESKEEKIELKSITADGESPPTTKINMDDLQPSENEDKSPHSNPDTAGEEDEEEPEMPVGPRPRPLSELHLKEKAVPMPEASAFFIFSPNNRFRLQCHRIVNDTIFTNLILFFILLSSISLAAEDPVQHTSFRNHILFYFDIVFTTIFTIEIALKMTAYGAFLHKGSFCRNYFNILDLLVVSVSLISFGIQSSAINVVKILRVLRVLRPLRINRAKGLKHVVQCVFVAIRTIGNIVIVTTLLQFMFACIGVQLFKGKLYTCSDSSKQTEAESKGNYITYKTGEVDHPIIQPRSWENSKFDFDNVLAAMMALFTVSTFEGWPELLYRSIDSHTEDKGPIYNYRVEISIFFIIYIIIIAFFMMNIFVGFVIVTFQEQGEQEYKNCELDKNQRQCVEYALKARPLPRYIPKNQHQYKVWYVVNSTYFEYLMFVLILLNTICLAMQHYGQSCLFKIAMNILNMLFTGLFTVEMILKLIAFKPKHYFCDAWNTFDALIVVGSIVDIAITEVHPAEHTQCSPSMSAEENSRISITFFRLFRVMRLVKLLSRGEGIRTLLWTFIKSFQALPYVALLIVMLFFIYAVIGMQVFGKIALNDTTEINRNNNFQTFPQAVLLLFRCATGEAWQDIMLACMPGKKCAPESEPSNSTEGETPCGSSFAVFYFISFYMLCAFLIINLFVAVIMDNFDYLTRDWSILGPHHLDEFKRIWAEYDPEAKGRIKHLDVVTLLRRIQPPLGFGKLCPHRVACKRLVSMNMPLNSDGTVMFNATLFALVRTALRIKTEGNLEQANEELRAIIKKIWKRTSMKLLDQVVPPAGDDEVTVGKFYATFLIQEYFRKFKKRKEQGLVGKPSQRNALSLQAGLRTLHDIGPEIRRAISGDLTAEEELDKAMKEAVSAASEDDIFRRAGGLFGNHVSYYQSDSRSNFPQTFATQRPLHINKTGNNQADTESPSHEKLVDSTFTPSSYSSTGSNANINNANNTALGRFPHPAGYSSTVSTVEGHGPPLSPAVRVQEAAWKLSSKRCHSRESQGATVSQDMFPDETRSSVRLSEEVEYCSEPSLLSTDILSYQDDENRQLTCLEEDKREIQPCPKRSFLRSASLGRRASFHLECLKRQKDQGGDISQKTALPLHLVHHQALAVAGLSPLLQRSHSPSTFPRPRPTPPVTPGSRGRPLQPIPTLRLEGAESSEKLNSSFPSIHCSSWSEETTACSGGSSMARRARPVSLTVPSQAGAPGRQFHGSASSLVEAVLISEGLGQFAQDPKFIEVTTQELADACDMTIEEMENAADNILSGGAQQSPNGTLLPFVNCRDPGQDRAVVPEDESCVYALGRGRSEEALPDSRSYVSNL
T2 sequence (P54290 25-944 partner limits assumed, other chains not shown): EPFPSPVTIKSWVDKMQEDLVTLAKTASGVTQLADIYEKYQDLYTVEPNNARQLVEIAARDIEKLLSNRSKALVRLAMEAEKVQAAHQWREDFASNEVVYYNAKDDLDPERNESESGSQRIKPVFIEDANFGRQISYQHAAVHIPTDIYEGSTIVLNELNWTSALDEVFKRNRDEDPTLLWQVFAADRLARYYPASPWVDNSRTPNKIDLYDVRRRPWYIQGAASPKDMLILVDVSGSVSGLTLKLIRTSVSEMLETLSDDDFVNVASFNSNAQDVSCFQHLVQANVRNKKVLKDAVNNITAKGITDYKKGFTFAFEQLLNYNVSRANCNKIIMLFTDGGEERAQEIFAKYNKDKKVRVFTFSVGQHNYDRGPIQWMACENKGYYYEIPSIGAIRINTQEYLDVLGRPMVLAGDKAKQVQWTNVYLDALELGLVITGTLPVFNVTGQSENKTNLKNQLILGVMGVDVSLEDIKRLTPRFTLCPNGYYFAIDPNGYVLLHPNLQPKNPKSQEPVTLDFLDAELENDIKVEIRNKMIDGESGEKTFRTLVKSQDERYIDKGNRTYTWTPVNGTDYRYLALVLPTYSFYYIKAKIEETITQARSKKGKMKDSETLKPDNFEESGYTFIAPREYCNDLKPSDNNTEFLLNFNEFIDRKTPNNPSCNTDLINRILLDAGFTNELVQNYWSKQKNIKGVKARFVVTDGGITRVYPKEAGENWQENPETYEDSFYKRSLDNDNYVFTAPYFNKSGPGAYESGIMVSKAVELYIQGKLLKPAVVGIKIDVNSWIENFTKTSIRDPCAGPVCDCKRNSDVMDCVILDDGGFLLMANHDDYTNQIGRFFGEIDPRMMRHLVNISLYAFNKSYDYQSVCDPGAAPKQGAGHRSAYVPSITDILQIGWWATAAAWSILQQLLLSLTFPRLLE
T2 sequence (P54290 945-1091 partner limits assumed, other chains not shown): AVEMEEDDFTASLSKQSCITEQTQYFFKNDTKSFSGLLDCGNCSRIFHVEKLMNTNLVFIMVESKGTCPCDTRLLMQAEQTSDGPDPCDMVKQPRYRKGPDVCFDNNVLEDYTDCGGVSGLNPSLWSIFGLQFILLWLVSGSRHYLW

Regarding `CC1=C(C(=O)NCCCN2CCC(c3ccccc3)CC2)C(c2ccc([N+](=O)[O-])cc2)c2c([nH]c(=O)[nH]c2=O)N1` (stereo not drawn) [Example 63, 1,4-Dihydro-6-methyl-4-(4-nitrophenyl)-5-{N-[3-(4-phenylpiperidin-1-yl)propyl]}carboxamido-[2,3, d]uracilylpyridine], the Ki at α2A receptor (setting [2]) was 0.955 µM; on L-type calcium channel (setting [3]), 66.1 µM; in experiment [1] (setting [4]), 0.0447 µM.
`COC(=O)C1=C(C)NC(C)=C(C(=O)NCCCN2CCC(c3ccccc3)CC2)C1c1ccc(Cl)c([N+](=O)[O-])c1` (stereo not drawn) [Example 17, 4-(4-Chloro-3-nitrophenyl)-1,4-dihydro-3-methoxycarbonyl-2,6-dimethyl-5-(N-(3-(4-phenylpiperidin-1-yl)propyl)carboxamido)pyridine]: the Ki on α2A receptor (setting [2]) is 0.347 µM; at L-type calcium channel (setting [3]) it was 10 µM; in experiment [1] (setting [4]) it was 0.126 µM.
For the compound `CCC1=C(C(N)=O)C(c2ccc([N+](=O)[O-])cc2)C(C(=O)NCCCN2CCC(c3ccccc3)CC2)=C(CC)N1` (stereo not drawn) [Example 121, 5-Carboxamido-2,6-diethyl-1,4-dihydro-4-(4-nitrophenyl)-3-{N-[3-(4-phenylpiperidin-1-yl)propyl]}carboxamidopyridine], the Ki is 0.363 µM on α2A receptor (setting [5]), 16.6 µM on L-type calcium channel (setting [6]) and 0.24 µM in experiment [1] (setting [7]).
Consider `CCC1=C(C(=O)OC)C(c2ccc([N+](=O)[O-])cc2)C(C(=O)NCCCN2CCC(C(=O)OC)(c3ccccc3)CC2)=C(COCCN)N1` (stereo not drawn) [Example 235, 2-((2-Aminoethyl)oxy)methyl-6-ethyl-1,4-dihydro-5-methoxycarbonyl-3-(N-(3-(4-methoxycarbonyl-4-phenylpiperidin-1-yl)propyl))carboxamido-4-(4-nitro)phenylpyridine], for which the Ki on α2A receptor is 2.4 µM; on L-type calcium channel (PKi Ca), 166 µM; in experiment [1] (PKi alpha-1 1a), 0.282 µM.
`CC1=C(C(N)=O)C(c2ccc([N+](=O)[O-])cc2)C(C(=O)NC2CCN(Cc3ccccc3)CC2)=C(c2ccoc2)N1.Cl.O` (stereo not drawn) [Example 66]: at α2A receptor (setting [8]), the “pKi alpha-2 2a” value stood at 5.53. The “pKi Ca” value on L-type calcium channel (setting [9]) was 6.22. The “pKi alpha-1 1a” value in experiment [1] (setting [10]) stood at 5.45.
Regarding `COC(=O)C1=C(C)NC(C)=C(C(=O)NCCCN2CCc3cc(OC)c(OC)cc3C2)C1c1ccc([N+](=O)[O-])cc1` (stereo not drawn) [Example 57, 1,4-Dihydro-3-methoxycarbonyl-5-{N-[3-(1,2,3,4-tetrahydro-6,7-dimethoxyisoquinolin-2-yl)propyl]}carboxamido-2,6-dimethyl-4-(4-nitrophenyl)pyridine hydrochloride hydrate], the Ki at α2A receptor (setting [2]) is 0.195 µM; at L-type calcium channel (setting [3]), 1000 µM; in experiment [1] (setting [4]), 1.62 µM.
The corresponding values for `CC1=C(C(N)=O)C(c2ccc([N+](=O)[O-])cc2)C(C(=O)NCCCN2CCC(c3ccccc3)CC2)=C(C)N1` (stereo not drawn) [Example 60, 5-Carboxamido-1,4-dihydro-2,6-dimethyl-4-(4-nitrophenyl)-3-{N-[3-(4-phenylpiperidin-1-yl)propyl]}carboxamidopyridine] are 0.0055 µM, 158 µM and 0.2 µM.
As for `COC(=O)C1=C(C)NC(c2ccccc2)=C(C(=O)NCCCN2CCC(c3ccccc3)CC2)C1c1ccc([N+](=O)[O-])cc1.Cl` (stereo not drawn) [Example 79, 1,4-Dihydro-5-methoxycarbonyl-6-methyl-4-(4-nitro)phenyl-2-phenyl-3-(N-(3-(4-phenylpiperidin-1-yl)propyl)) carboxamidopyridine hydrochloride], at α2A receptor (setting [8]), the “pKi alpha-2 2a” value was 6.84. Moreover, at L-type calcium channel (setting [9]), the “pKi Ca” value was found to be 6.17. For the same compound, the “pKi alpha-1 1a” value in experiment [1] (setting [10]) was 6.99.
Take `COC(=O)C1=C(C)NC(C)=C(C(=O)OCCCN2CCC(c3ccccc3)CC2)C1c1ccc([N+](=O)[O-])cc1` (stereo not drawn) [Example 48, 1,4-Dihydro-5-methazycarbonyl-2,6-dimethyl-4-(4-nitrophenyl)-3-[3-(4-phenylpiperidin-1-yl)propoxy]}carbonylpyridine hydrochloride hydrate]: the figures for the Ki (on α2A receptor (setting [2]); at L-type calcium channel (setting [3]); in experiment [1] (setting [4])) were 0.0174 µM, 0.479 µM and 0.00977 µM, respectively.
For the compound `CC1=C(C(N)=O)C(c2ccc([N+](=O)[O-])cc2)C(C(=O)NCCCN2CCC(C(=O)OCCC#N)(c3ccccc3)CC2)=CN1C` (stereo not drawn) [Example 209, 5-Carboxamido-3-{N-[3-(4-(2-cyanoethoxycarbonyl)-4-phenylpiperidin-1-yl)propyl]}carboxamido-1,4-dihydro-1,6-dimethyl-4-(4-nitrophenyl) pyridine], the “PKi alpha-2 2a” value at α2A receptor ([3H]rauwolscine, human receptor, LM(tk-) cell lysates, mean) is recorded as 5.78. Also, on L-type calcium channel ([3H]nitrendipine, rat cardiac muscle membranes, mean), the “PKi Ca” value is 4.53. The “PKi alpha-1 1a” value in experiment [1] ([3H]prazosin, cloned human receptor, LM(tk-) cell membranes, mean) is given as 5.17.
For the compound `CCC1=C(C(=O)NC2CCN(Cc3ccccc3)CC2)C(c2ccc([N+](=O)[O-])cc2)C(C(=O)OC)=C(C)N1` (stereo not drawn) [Example 75, 2-Ethyl-1,4-dihydro-5-methoxycarbonyl-6-methyl-4-(4-nitro)phenyl-3-(N-(N-phenylmethyl)piperidin-4-yl)carboxamidopyridine hydrochloride], the values for the Ki (at α2A receptor (setting [2]); at L-type calcium channel (setting [3]); in experiment [1] (setting [4])) were 2.88 µM, 3.55 µM and 4.37 µM, respectively.
Take `COC(=O)C1=C(C)NC(C)=C(C(=O)NCCCN2CCC(c3ccccc3)CC2)C1c1ccc2c(c1)OCO2` (stereo not drawn) [Example 250]: the Ki is 0.123 µM at α2A receptor ([3H]rauwolscine, human α2A receptor, LM(tk-) cells, read-out: PKi alpha-2 2a (converted)); 13.2 µM on L-type calcium channel ([3H]nitrendipine, rat cardiac muscle membranes, L-type calcium channel, read-out: PKi Ca (converted)); 0.603 µM in experiment [1] ([3H]prazosin, cloned human α1A receptor, LM(tk-) cell membranes, read-out: PKi alpha-1 1a (converted)).
As to `COC(=O)C1=C(C)NC(C)=C(C(=O)NCCCCN2CCC(c3ccccc3)CC2)C1c1ccc([N+](=O)[O-])cc1` (stereo not drawn) [Example 3, 1,4-Dihydro-3-methoxycarbonyl-2,6-dimethyl-4-(4-nitrophenyl)-5-{N-[4-(4-phenylpiperidin-1-yl)butyl]}carbozamidopyridine hydrochloride hydrate], the Ki was 0.102 µM on α2A receptor (setting [2]), 1000 µM at L-type calcium channel (setting [3]) and 0.145 µM in experiment [1] (setting [4]).
For the compound `COC(=O)C1(c2ccccc2)CCN(CCCNC(=O)C2=C(COCCN=[N+]=[N-])NC(C)=C(C(N)=O)C2c2ccc([N+](=O)[O-])cc2)CC1` (stereo not drawn) [Example 183, 2-[(2-Azidoethoxy)methyl]-5-carboxamido-1,4-dihydro-3-{N-[3-(4-methoxycarbonyl-4-phenylpiperidin-1-yl)propyl]}carboxamido-6-methyl-4-(4-nitrophenyl)pyridine], the Ki at α2A receptor ([3H]rauwolscine, human receptor, LM(tk-) cell lysates, mean, read-out: PKi alpha-2 2a (converted)) is 1.05 µM; on L-type calcium channel ([3H]nitrendipine, rat cardiac muscle membranes, mean, read-out: PKi Ca (converted)), 74.1 µM; in experiment [1] ([3H]prazosin, cloned human receptor, LM(tk-) cell membranes, mean, read-out: PKi alpha-1 1a (converted)) it was 0.501 µM.
With `CCC1=C(C(N)=O)C(c2ccc([N+](=O)[O-])cc2)C(C(=O)NCCCN2CCN(c3ccccc3)CC2)=C(CC)N1` (stereo not drawn) [Example 104, 5-Carboxamido-2,6-diethyl-1,4-dihydro-4-(4-nitrophenyl)-3-{N-[3-(4-phenylpiperazin-1-yl)propyl]}carboxamido-pyridine hydrochloride hydrate], the Ki on α2A receptor (setting [5]) is 0.00525 µM; on L-type calcium channel (setting [6]) it was 1000 µM; in experiment [1] (setting [7]), 0.132 µM.
